Test results as given in US6737383B1, “Herbicidal oxadiazolidines” (priority 1999, dated 2004).

Tests used:
bamyardgrass = experiment: Test B flood test barnyardgrass; type: in vivo, Echinochloa crus-galli
How it was run: (§1)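 Each value is a visual injury score relative to controls, with 10 meaning complete control and 0 no effect. Evaluation took place twelve to sixteen days after the 2-leaf-stage plants were treated and kept in the greenhouse.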

morningglory = experiment: Test B pre/postemergence morningglory; type: in vivo, Ipomoea hederacea
How it was run: (§2)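 Herbicidal effect was estimated by eye on a ten-point control scale after plants spent twelve to sixteen days in a greenhouse following soil or foliar treatment. Foliar sprays targeted plants at one to four leaves; all doses were formulated in a non-phytotoxic solvent with surfactant.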

wheat = experiment: Test B pre/postemergence wheat; type: in vivo, Triticum aestivum
How it was run: as §2

duck salad = experiment: Test B flood test duck salad; type: in vivo, Heteranthera limosa
How it was run: as §1

sugar beet = experiment: Test B pre/postemergence sugar beet; type: in vivo, Beta vulgaris
How it was run: as §2

blackgrass = experiment: Test B pre/postemergence blackgrass; type: in vivo, Alopecurus myosuroides
How it was run: as §2

rape = experiment: Test B pre/postemergence rape; type: in vivo, Brassica napus
How it was run: as §2

crabgrass = experiment: Test B pre/postemergence crabgrass; type: in vivo, Digitaria sanguinalis
How it was run: as §2

velvetleaf = experiment: Test B pre/postemergence velvetleaf; type: in vivo, Abutilon theophrasti
How it was run: as §2

giant foxtail = experiment: Test B pre/postemergence giant foxtail; type: in vivo, Setaria faberii
How it was run: as §2

soybean = experiment: Test B pre/postemergence soybean; type: in vivo, Glycine max
How it was run: as §2

cocklebur = experiment: Test B pre/postemergence cocklebur; type: in vivo, Xanthium strumarium
How it was run: as §2

purple nutsedge = experiment: Test B pre/postemergence purple nutsedge; type: in vivo, Cyperus rotundus
How it was run: as §2

rice = experiment: Test B flood test rice; type: in vivo, Oryza sativa
How it was run: as §1

wild oat = experiment: Test B pre/postemergence wild oat; type: in vivo, Avena fatua
How it was run: as §2

surinam grass = experiment: Test B pre/postemergence surinam grass; type: in vivo, Brachiaria decumbens
How it was run: as §2

pigweed = experiment: Test B pre/postemergence pigweed; type: in vivo, Amaranthus retroflexus
How it was run: as §2

corn = experiment: Test B pre/postemergence corn; type: in vivo, Zea mays
How it was run: as §2

bedstraw = experiment: Test B pre/postemergence bedstraw; type: in vivo, Galium aparine; conditions: Preemergence; for Bedstraw plant response rating: scale 0 to 10, 0 is no effect, 10 is complete control
How it was run: as §2

smallflower flatsedge = experiment: Test B flood test smallflower flatsedge; type: in vivo, Cyperus difformis
How it was run: as §1

[1] = Rate 62 g/ha, flood test species, Pre-emergence, visual evaluation after twelve to sixteen days
[2] = Rate 125 g/ha, under heading Pre-emergence, flood test species, visual evaluation after twelve to sixteen days
[3] = Rate 250 g/ha, Pre-emergence (flood test species), scale 0 to 10, 0 is no effect, 10 is complete control
[4] = Rate 500 g/ha, Pre-emergence section of Table B, 0 to 10 scale (0 no effect, 10 complete control)
[5] = Postemergence, Rate 62 g/ha, scale of 0 to 10, 0 is no effect, 10 is complete control
[6] = Postemergence, Rate 125 g/ha, scale 0 to 10, 0 is no effect, 10 is complete control
[7] = Postemergence, Rate 500 g/ha, scale 0 to 10, 0 is no effect, 10 is complete control
[8] = Preemergence, Rate 62 g/ha, scale of 0 to 10 where 0 is no effect and 10 is complete control
[9] = Preemergence, Rate 125 g/ha, scale 0 to 10, 0 is no effect, 10 is complete control
[10] = Preemergence, Rate 500 g/ha, scale of 0 to 10 where 0 is no effect and 10 is complete control
[11] = Postemergence, Rate 250 g/ha, scale 0 to 10
[12] = Preemergence, Rate 250 g/ha, scale 0 to 10, 0 is no effect, 10 is complete control

CCc1nc(C)c(Cn2c(=O)on(C(=O)N(c3ccc(Cl)cc3)C(C)C)c2=O)s1 [Compound 499]
Plant response rating, Barnyardgrass (0 to 10 scale, 0 is no effect, 10 is complete control) (bamyardgrass; [1]): 0
Barnyardgrass plant response rating (0 to 10 scale, 0 is no effect, 10 is complete control) (bamyardgrass; [2]): 0
Barnyardgrass plant response rating (bamyardgrass; [3]): 0
Barnyardgrass plant response rating (bamyardgrass; [4]): 0
Morningglory plant response rating (morningglory; [5]): 3
Morningglory plant response rating (morningglory; [6]): 3
Plant response rating, Morningglory (morningglory; [7]): 6
Plant response rating, Morningglory (morningglory; [8]): 0
Morningglory plant response rating (morningglory; [9]): 0
Morningglory plant response rating (morningglory; [10]): 0
Wheat plant response rating (wheat; [5]): 0
Wheat plant response rating (wheat; [6]): 0
Plant response rating, Wheat (wheat; [7]): 0
Plant response rating, Wheat (wheat; [8]): 0
Wheat plant response rating (wheat; [9]): 0
Wheat plant response rating (wheat; [10]): 0
Plant response rating, Ducksalad (0 to 10 scale, 0 is no effect, 10 is complete control) (duck salad; [1]): 0
Ducksalad plant response rating (0 to 10 scale, 0 is no effect, 10 is complete control) (duck salad; [2]): 0
Ducksalad plant response rating (duck salad; [3]): 0
Ducksalad plant response rating (duck salad; [4]): 0
Sugarbeets plant response rating (sugar beet; [5]): 0
Sugarbeets plant response rating (sugar beet; [6]): 0
Plant response rating, Sugarbeets (sugar beet; [7]): 0
Plant response rating, Sugarbeets (sugar beet; [8]): 0
Sugarbeets plant response rating (sugar beet; [9]): 0
Sugarbeets plant response rating (sugar beet; [10]): 0
Blackgrass plant response rating (blackgrass; [5]): 0
Blackgrass plant response rating (blackgrass; [6]): 0
Blackgrass plant response rating (blackgrass; [11]): 2
Plant response rating, Blackgrass (blackgrass; [7]): 4
Plant response rating, Blackgrass (blackgrass; [8]): 0
Blackgrass plant response rating (blackgrass; [9]): 0
Blackgrass plant response rating (blackgrass; [12]): 0
Blackgrass plant response rating (blackgrass; [10]): 1
Rape plant response rating (rape; [5]): 0
Rape plant response rating (rape; [6]): 0
Plant response rating, Rape (rape; [7]): 0
Plant response rating, Rape (rape; [8]): 0
Rape plant response rating (rape; [9]): 0
Rape plant response rating (rape; [10]): 0
Crabgrass plant response rating (crabgrass; [5]): 0
Crabgrass plant response rating (crabgrass; [6]): 0
Crabgrass plant response rating (crabgrass; [11]): 0
Plant response rating, Crabgrass (crabgrass; [7]): 0
Plant response rating, Crabgrass (crabgrass; [8]): 4
Crabgrass plant response rating (crabgrass; [9]): 6
Crabgrass plant response rating (crabgrass; [10]): 8
Velvetleaf plant response rating (velvetleaf; [5]): 0
Velvetleaf plant response rating (velvetleaf; [6]): 0
Plant response rating, Velvetleaf (velvetleaf; [7]): 0
Plant response rating, Velvetleaf (velvetleaf; [8]): 0
Velvetleaf plant response rating (velvetleaf; [9]): 0
Velvetleaf plant response rating (velvetleaf; [10]): 0
Giant foxtail plant response rating (giant foxtail; [5]): 0
Giant foxtail plant response rating (giant foxtail; [6]): 0
Plant response rating, Giant foxtail (giant foxtail; [7]): 2
Plant response rating, Giant foxtail (giant foxtail; [8]): 3
Giant foxtail plant response rating (giant foxtail; [9]): 5
Giant foxtail plant response rating (giant foxtail; [10]): 10
Soybean plant response rating (soybean; [5]): 0
Soybean plant response rating (soybean; [6]): 1
Plant response rating, Soybean (soybean; [7]): 3
Plant response rating, Soybean (soybean; [8]): 0
Soybean plant response rating (soybean; [9]): 0
Soybean plant response rating (soybean; [10]): 0
Cocklebur plant response rating (cocklebur; [5]): 0
Cocklebur plant response rating (cocklebur; [6]): 0
Cocklebur plant response rating (cocklebur; [11]): 2
Plant response rating, Cocklebur (cocklebur; [7]): 4
Cocklebur plant response rating (cocklebur; [9]): 0
Cocklebur plant response rating (cocklebur; [12]): 0
Cocklebur plant response rating (cocklebur; [10]): 4
Nutsedge plant response rating (purple nutsedge; [5]): 0
Nutsedge plant response rating (purple nutsedge; [6]): 0
Plant response rating, Nutsedge (purple nutsedge; [7]): 0
Nutsedge plant response rating (purple nutsedge; [9]): 0
Nutsedge plant response rating (purple nutsedge; [10]): 0
Plant response rating, Rice (0 to 10 scale, 0 is no effect, 10 is complete control) (rice; [1]): 0
Rice plant response rating (0 to 10 scale, 0 is no effect, 10 is complete control) (rice; [2]): 0
Rice plant response rating (rice; [3]): 0
Rice plant response rating (rice; [4]): 0
Wild oats plant response rating (wild oat; [5]): 0
Wild oats plant response rating (wild oat; [6]): 0
Plant response rating, Wild oats (wild oat; [7]): 0
Plant response rating, Wild oats (wild oat; [8]): 0
Wild oats plant response rating (wild oat; [9]): 0
Wild oats plant response rating (wild oat; [10]): 0
B. signalgrass plant response rating (surinam grass; [5]): 0
B. signalgrass plant response rating (surinam grass; [6]): 0
B. signalgrass plant response rating (surinam grass; Postemergence, Rate 250 g/ha, scale 0 to 10, 0 no effect, 10 complete control): 0
Plant response rating, B. signalgrass (surinam grass; [7]): 0
Plant response rating, B. signalgrass (surinam grass; [8]): 0
B. signalgrass plant response rating (surinam grass; [9]): 0
B. signalgrass plant response rating (surinam grass; [12]): 0
B. signalgrass plant response rating (surinam grass; Preemergence, Rate 500 g/ha, scale 0 to 10, 0 is no effect, 10 is complete control): 2
Redroot pigweed plant response rating (pigweed; [5]): 0
Redroot pigweed plant response rating (pigweed; [6]): 0
Plant response rating, Redroot pigweed (pigweed; [7]): 0
Plant response rating, Redroot pigweed (pigweed; [8]): 0
Redroot pigweed plant response rating (pigweed; [9]): 0
Redroot pigweed plant response rating (pigweed; [10]): 0
Corn plant response rating (corn; [5]): 0
Corn plant response rating (corn; [6]): 0
Corn plant response rating (corn; [11]): 0
Plant response rating, Corn (corn; [7]): 0
Plant response rating, Corn (corn; [8]): 0
Corn plant response rating (corn; [9]): 0
Corn plant response rating (corn; [10]): 0
Plant response rating, Bedstraw (bedstraw; Rate 62 g/ha, scale of 0 to 10 where 0 is no effect and 10 is complete control): 0
Bedstraw plant response rating (bedstraw; Rate 125 g/ha): 0
Bedstraw plant response rating (bedstraw; Rate 250 g/ha): 0
Plant response rating, S. Flatsedge (0 to 10 scale, 0 is no effect, 10 is complete control) (smallflower flatsedge; [1]): 0
S. Flatsedge plant response rating (0 to 10 scale, 0 is no effect, 10 is complete control) (smallflower flatsedge; [2]): 0
S. Flatsedge plant response rating (smallflower flatsedge; [3]): 0
S. Flatsedge plant response rating (smallflower flatsedge; [4]): 0
